How the values were obtained:
Histone deacetylase = molecular target: T1, Histone deacetylase (Plasmodium falciparum, UniProt Q9XYC7); experiment: Inhibition of recombinant Plasmodium falciparum HDAC1 using HDAC substrate-3 after 30 mins by fluorescence assay
T1 sequence (Q9XYC7 whole entry): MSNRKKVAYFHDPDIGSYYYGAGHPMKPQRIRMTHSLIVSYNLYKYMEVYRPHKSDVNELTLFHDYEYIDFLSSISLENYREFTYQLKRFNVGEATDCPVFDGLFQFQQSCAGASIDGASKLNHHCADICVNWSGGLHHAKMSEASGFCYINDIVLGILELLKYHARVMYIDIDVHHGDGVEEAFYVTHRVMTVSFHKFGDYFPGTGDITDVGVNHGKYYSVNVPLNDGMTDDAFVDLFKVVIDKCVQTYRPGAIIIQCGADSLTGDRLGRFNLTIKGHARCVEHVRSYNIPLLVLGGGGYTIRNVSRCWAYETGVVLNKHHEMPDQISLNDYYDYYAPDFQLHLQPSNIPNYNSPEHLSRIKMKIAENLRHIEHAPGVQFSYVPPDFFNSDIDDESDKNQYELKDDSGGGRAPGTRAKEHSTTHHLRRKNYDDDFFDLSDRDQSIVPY

[1] = Selectivity index, ratio of IC50 for African green monkey Vero cells to IC50 for Plasmodium falciparum W2; assay type: toxicity; conditions: read-out: Ratio IC50
Leishmania donovani [2] = experiment: Antilieshmanial activity against promastigote stage of Leishmania donovani by fluorimetric assay; assay type: functional, organism-based
[3] = Selectivity index, ratio of IC50 for African green monkey Vero cells to IC50 for Plasmodium falciparum D6; assay type: toxicity; conditions: read-out: Ratio IC50
Plasmodium falciparum [4] = experiment: Antimalarial activity against Plasmodium falciparum using Malstat reagent by parasite lactate dehydrogenase assay; assay type: functional, organism-based
Leishmania donovani [5] = experiment: Antilieshmanial activity against amastigote stage of Leishmania donovani by fluorimetric assay; assay type: functional, organism-based
[6] = molecular target: T2, Protein deacetylase HDAC6 (Homo sapiens, UniProt Q9UBN7); experiment: Inhibition of human HDAC6 using Z(Ac)Lys-AMC as substrate by fluorimetric assay
T2 sequence (Q9UBN7 whole entry): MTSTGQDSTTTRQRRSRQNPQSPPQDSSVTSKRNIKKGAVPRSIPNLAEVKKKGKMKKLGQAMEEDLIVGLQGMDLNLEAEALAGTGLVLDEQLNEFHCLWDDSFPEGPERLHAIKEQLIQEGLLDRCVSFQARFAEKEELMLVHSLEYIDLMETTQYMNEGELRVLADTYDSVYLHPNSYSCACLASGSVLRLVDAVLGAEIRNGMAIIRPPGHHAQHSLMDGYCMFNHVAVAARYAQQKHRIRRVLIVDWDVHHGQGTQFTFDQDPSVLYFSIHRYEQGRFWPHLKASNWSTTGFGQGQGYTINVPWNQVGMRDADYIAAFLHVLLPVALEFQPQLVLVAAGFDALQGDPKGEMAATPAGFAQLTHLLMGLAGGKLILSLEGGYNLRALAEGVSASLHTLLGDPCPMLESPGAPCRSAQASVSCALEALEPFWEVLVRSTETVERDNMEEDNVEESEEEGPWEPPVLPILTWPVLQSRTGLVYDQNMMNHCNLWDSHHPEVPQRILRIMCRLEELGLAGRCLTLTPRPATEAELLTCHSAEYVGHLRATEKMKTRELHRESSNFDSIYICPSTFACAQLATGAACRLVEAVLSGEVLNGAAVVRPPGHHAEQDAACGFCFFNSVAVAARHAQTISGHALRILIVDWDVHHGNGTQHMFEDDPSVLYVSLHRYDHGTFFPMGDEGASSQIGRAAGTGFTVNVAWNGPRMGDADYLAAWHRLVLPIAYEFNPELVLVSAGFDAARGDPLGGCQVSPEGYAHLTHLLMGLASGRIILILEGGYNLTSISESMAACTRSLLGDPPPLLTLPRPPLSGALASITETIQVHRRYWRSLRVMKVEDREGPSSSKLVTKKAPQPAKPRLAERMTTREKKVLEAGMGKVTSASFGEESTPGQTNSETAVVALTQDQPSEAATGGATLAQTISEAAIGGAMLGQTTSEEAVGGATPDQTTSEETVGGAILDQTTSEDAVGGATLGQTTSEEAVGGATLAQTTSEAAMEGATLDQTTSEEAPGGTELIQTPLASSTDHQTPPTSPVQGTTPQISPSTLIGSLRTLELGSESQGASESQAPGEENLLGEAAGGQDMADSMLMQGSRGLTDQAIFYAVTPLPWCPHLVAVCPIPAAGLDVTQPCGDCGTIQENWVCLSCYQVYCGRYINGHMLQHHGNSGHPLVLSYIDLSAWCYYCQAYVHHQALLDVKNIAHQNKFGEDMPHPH

Schistosoma mansoni = experiment: Antiparasitic activity against Schistosoma mansoni assessed as reduction in cell viability at 50 uM after 3 days relative to control; assay type: functional
Histone deacetylase 8 [7] = molecular target: T3, Histone deacetylase 8 (Schistosoma mansoni, UniProt A5H660); experiment: Inhibition of Schistosoma mansoni HDAC8 using Fluor de Lys(R) as substrate by fluorimetric assay
T3 sequence (A5H660 whole entry): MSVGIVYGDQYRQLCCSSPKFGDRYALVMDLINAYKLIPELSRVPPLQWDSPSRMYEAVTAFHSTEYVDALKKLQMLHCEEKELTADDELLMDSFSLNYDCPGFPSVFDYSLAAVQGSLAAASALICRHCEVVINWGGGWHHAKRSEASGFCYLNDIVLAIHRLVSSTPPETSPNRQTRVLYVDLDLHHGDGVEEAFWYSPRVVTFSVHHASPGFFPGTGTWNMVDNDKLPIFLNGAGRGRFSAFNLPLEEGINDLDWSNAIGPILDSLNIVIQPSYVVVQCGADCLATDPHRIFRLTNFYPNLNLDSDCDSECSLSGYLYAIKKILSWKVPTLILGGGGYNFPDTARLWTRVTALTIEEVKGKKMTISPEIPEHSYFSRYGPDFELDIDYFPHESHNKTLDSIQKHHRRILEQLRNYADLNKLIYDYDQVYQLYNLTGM

Histone deacetylase 1 = Histone deacetylase 1 (Homo sapiens, UniProt Q13547); experiment: Inhibition of human HDAC1 using Z(Ac)Lys-AMC as substrate by fluorimetric assay
Histone deacetylase 8 [8] = molecular target: T4, Histone deacetylase 8 (Homo sapiens, UniProt Q9BY41); experiment: Inhibition of human HDAC8 using Fluor de Lys(R) as substrate by fluorimetric assay
T4 sequence (Q9BY41 whole entry): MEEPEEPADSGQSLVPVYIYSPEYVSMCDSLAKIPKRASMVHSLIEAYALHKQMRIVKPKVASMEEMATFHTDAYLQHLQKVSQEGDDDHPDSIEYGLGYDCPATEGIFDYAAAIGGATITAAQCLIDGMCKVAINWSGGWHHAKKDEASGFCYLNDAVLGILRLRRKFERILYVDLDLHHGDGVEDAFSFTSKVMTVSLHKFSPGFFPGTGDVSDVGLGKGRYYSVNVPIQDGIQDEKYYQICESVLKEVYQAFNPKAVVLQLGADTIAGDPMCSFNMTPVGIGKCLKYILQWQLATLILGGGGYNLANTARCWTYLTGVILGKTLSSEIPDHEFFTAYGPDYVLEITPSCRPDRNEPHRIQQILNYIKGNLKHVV

Leishmania infantum = experiment: Antileishmanial activity against amastigote stage of Leishmania infantum MHOM/MA671TMAP263 expressing luciferase after 72 hrs by luciferase assay; assay type: functional, organism-based; conditions: MHOM/MA671TMAP263, 72 h
[9] = molecular target: T5, NAD-dependent protein deacetylase sirtuin-1 (Homo sapiens, UniProt Q96EB6); experiment: Inhibition of human SIRT1 in presence of NAD+ by fluorimetric method
T5 sequence (Q96EB6 whole entry): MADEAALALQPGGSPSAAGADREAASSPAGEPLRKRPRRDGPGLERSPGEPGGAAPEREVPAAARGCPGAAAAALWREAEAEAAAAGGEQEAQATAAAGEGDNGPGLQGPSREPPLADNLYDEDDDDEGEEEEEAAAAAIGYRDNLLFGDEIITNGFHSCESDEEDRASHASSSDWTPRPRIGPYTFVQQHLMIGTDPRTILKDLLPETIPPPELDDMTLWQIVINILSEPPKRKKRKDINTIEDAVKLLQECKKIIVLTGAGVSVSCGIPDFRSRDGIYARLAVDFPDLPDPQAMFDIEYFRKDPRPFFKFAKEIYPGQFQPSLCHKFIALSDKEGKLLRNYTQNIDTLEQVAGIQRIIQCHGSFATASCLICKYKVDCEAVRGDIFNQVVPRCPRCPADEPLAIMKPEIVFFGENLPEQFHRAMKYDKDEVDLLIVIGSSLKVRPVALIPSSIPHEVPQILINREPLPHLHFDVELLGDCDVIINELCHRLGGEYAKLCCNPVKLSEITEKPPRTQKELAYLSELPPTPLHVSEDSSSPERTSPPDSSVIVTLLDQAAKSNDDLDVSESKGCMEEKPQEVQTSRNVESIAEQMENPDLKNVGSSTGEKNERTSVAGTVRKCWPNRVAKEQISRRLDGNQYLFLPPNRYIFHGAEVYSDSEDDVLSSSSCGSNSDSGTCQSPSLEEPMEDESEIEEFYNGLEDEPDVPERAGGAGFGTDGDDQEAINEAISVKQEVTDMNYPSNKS

[10] = Selectivity index, ratio of IC50 for N-terminal His6-tagged recombinant Leishmania infantum SIR2RP1 expressed in Escherichia coli to IC50 for human SIRT1
[11] = Selectivity index, ratio of IC50 for HUVEC to IC50 for Plasmodium falciparum; assay type: toxicity; conditions: human, read-out: Ratio IC50
Plasmodium falciparum [12] = experiment: Antimalarial activity against Plasmodium falciparum infected in human erythrocytes after 24 hrs by microbeta scintillation counting-based [3H]-hypoxanthine incorporation assay; assay type: functional, organism-based
[13] = Selectivity index, ratio of IC50 for human NFF cells to IC50 for Plasmodium falciparum; assay type: toxicity; conditions: read-out: Ratio IC50
[14] = Selectivity index, ratio of IC50 for human PTC cells to IC50 for Plasmodium falciparum; assay type: toxicity; conditions: read-out: Ratio IC50
[15] = Selectivity index, ratio of IC50 for human NHDF cells to IC50 for Plasmodium falciparum; assay type: toxicity; conditions: read-out: Ratio IC50
Toxoplasma gondii = experiment: Antiparasitic activity against Toxoplasma gondii; assay type: functional, organism-based

Chain of Histone deacetylase 1 (Q13547 whole entry): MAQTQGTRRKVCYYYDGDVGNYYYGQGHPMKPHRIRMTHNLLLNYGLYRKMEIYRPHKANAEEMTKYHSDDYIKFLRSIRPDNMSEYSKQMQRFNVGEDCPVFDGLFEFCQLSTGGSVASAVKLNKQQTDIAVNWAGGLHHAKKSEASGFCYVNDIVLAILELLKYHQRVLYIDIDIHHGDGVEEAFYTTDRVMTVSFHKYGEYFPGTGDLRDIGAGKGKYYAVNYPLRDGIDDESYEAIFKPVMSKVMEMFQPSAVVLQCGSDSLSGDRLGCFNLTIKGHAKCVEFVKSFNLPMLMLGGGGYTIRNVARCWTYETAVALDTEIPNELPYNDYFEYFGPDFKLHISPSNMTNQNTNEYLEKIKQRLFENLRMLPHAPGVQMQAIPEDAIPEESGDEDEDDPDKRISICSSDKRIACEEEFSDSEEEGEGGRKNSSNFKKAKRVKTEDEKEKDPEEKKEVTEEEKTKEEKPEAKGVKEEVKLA

Q: For `CC[C@H]1OC(=O)[C@H](C)[C@@H](O[C@H]2C[C@@](C)(OC)[C@@H](O)[C@H](C)O2)[C@H](C)[C@@H](O[C@@H]2O[C@H](C)C[C@H](N(C)Cc3ccc(-c4cn(CCCCCCCCCC(=O)NO)nn4)cc3)[C@H]2O)[C@](C)(O)C[C@@H](C)C(=O)[C@H](C)[C@@H](O)[C@]1(C)O`, which IC50 (Histone deacetylase) is on record?
A: Its IC50 is 0.401 µM.

Q: And the selectivity ratio [1]?
A: Its selectivity ratio is greater than 6.

Q: What about the IC50 (Leishmania donovani [2]) of the same compound?
A: The IC50 was 3.2 µM.

Q: And the selectivity ratio [3]?
A: The selectivity ratio was greater than 3.4.

Q: What about the IC50 (Plasmodium falciparum [4]) of the same compound?
A: The IC50 was 0.76 to 1.32 µM.

Q: What about the IC50 (Leishmania donovani [5]) of the same compound?
A: The IC50 was 4.7 µM.

Q: For `O=C(NO)c1sc2ccccc2c1Cl`, which IC50 [6] is on record?
A: Its IC50 is 37.4 µM.

Q: And the Activity (Schistosoma mansoni)?
A: Its Activity is 100%.

Q: What about the IC50 (Histone deacetylase 8 [7]) of the same compound?
A: Its IC50 is 4.3 µM.

Q: And the IC50 (Histone deacetylase 1)?
A: The IC50 was 19.4 µM.

Q: And the IC50 (Histone deacetylase 8 [8])?
A: Its IC50 is 3.1 µM.

Q: For `O=C1c2cccc3cccc(c23)C(=O)N1CCCNCCCCCCCCCNCCCN1C(=O)c2cccc3cccc(c23)C1=O`, which IC50 (Leishmania infantum) is on record?
A: Its IC50 is 6.03 µM.

Q: And the IC50 [9]?
A: Its IC50 is 97.4 µM.

Q: And the Ratio IC50 [10]?
A: Its Ratio IC50 is 17.

Q: For `CCCCc1nc2cc(/C=C/C(=O)NO)ccc2n1CCN(CC)CC` [PRACINOSTAT], which selectivity ratio [11] is on record?
A: Its selectivity ratio is 4 to 1250.

Q: What about the IC50 (Plasmodium falciparum [12]) of the same compound?
A: Its IC50 is 0.08 to 0.15 µM.

Q: And the selectivity ratio [13]?
A: The selectivity ratio was 4 to 1250.

Q: And the selectivity ratio [14]?
A: The selectivity ratio was 4 to 1250.

Q: What about the selectivity ratio [15] of the same compound?
A: Its selectivity ratio is 4 to 1250.

Q: For `CCC(=O)CCCCC[C@@H]1NC(=O)[C@H]2CCCCN2C(=O)[C@H]([C@@H](C)CC)NC(=O)[C@H](Cc2cn(OC)c3ccccc23)NC1=O` [APICIDIN], which IC50 (Toxoplasma gondii) is on record?
A: Its IC50 is 0.013 to 0.015 µM.

— ChEMBL document CHEMBL4184137, “Lysine Deacetylase Inhibitors in Parasites: Past, Present, and Future Perspectives” (J Med Chem, 2017)
